Consider 19 compounds from patent publication US20220144847A1, “HETEROCYCLIC COMPOUND, PHARMACEUTICAL COMPOSITION COMPRISING SAME, PREPARATION METHOD THEREFOR, AND USE THEREOF” (Sichuan Kelun-Biotech Biopharmaceutical Co., Ltd., priority 2019, published 2022).

Read-outs that look alike come from different tables or passages of the source.

One test addresses VEGFR2 (Homo sapiens, UniProt P35968). The test can be described thus: VEGFR2 inhibition experiment (HTRF KinEASE-TK kit). Type of test: biochemical. Conditions: for inhibition at 0.3 µM: 300 nM; for inhibition at 0.3 µM / inhibition at 0.1 µM / inhibition at 0.03 µM: read-out: Inhibition rate on VEGFR2; for inhibition at 0.03 µM: 30 nM. On the procedure: Experimental method: According to the instructions of the HTRF KinEASE-TK kit (Cisbio), the compounds of the present disclosure were tested for their inhibitory effects on the VEGFR2 enzyme activity. After pre-incubation of the VEGFR2 enzyme and different concentrations of test compounds at room temperature for 30 min, a substrate and adenosine triphosphate (ATP) were added to initiate the reaction. After incubation at room temperature for 40 min, TK antibody-cryptate and streptavidin-XL665 were added, and the test was performed after incubation at room temperature for 45 min. With the solvent group (DMSO) as the negative control and the buffer group (without VEGFR2 enzyme) as the blank control, the relative inhibitory activity percentages (i.e., inhibition rates) of different concentrations of the compounds were computed as per the following formula:
(§1) Relative inhibitory activity percentage=1−(compound group of different concentrations−blank control)/(negative control−blank control)*100%
(§2) The relative inhibitory activity percentages of different concentrations of the compounds were plotted with respect to the compound concentrations, and the curve was fitted according to a four-parameter model to compute the IC50 value as per the following formula:
(§3) y=min+(max−min)/(1+(x/IC50)^(−Hillslope))
(§4) where y is the relative inhibitory activity percentage, max is the maximum value of the fitted curve, min is the minimum value of the fitted curve, x is the logarithmic concentration of the compound, and Hillslope is the slope of the curve.
In general terms: In TR-FRET formats the signal depends on donor and acceptor labels being close together.

The next test has as its target RET-V804M (Homo sapiens, UniProt P07949, V804M). The test can be described thus: RET inhibition experiment (HTRF KinEASE-TK kit), mutant RET-V804M. Type of test: biochemical. The conditions noted are these: for IC50: read-out: The IC50 (nM) for inhibiting V804M. On the procedure: Experimental method: According to the instructions of the HTRF KinEASE-TK kit (Cisbio), the compounds of the present disclosure were tested for their inhibitory effects on the activity of wild-type RET enzyme, mutant RET enzyme (RET-V804M, RET-V804L, and RET-M918T) and fusion-type RET enzyme (RET-CCDCl6). After pre-incubation of different RET enzymes and different concentrations of the test compounds at room temperature for 30 min, a substrate and adenosine triphosphate (ATP) were added to initiate the reaction. After incubation at room temperature for 40 min, TK antibody-cryptate and streptavidin-XL665 were added, and the test was performed after incubation at room temperature for 45 min. With the solvent group (DMSO) as the negative control and the buffer group (without RET enzyme) as the blank control, the relative inhibitory activity percentages (i.e., inhibition rates) of different concentrations of the compounds were computed as per the following formula:
as §1, §2, §3, §4

Where [1] appears, read: 10 nM (Table 2), read-out: Inhibition rate on RET-V804M.

RET-V804M, sequence (P07949 29-1114 V804M): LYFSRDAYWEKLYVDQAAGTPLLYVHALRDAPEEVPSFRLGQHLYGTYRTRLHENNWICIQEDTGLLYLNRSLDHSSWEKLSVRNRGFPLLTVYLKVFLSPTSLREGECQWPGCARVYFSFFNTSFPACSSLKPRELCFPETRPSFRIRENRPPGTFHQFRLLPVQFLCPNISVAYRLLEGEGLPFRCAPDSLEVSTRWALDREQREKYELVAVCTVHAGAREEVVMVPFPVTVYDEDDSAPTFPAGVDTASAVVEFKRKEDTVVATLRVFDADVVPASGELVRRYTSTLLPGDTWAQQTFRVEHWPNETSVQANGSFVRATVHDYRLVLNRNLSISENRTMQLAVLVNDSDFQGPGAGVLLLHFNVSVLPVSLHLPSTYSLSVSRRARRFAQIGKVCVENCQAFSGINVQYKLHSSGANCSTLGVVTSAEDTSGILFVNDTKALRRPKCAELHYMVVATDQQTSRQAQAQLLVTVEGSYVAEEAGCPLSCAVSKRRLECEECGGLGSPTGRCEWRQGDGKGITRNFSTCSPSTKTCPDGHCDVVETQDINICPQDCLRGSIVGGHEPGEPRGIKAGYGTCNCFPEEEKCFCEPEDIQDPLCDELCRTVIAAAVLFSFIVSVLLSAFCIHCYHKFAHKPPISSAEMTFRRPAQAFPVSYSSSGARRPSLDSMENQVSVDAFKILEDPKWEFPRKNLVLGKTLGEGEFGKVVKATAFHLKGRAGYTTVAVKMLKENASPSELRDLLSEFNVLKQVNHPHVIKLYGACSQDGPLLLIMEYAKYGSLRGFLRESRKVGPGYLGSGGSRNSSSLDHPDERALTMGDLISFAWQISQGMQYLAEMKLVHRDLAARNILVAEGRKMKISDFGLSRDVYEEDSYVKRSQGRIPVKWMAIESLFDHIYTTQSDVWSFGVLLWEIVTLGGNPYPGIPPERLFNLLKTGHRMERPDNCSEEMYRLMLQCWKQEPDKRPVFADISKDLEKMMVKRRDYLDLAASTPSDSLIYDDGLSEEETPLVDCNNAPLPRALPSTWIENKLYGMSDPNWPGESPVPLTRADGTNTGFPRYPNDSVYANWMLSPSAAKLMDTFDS
VEGFR2, sequence (P35968 20-1356, species assumed): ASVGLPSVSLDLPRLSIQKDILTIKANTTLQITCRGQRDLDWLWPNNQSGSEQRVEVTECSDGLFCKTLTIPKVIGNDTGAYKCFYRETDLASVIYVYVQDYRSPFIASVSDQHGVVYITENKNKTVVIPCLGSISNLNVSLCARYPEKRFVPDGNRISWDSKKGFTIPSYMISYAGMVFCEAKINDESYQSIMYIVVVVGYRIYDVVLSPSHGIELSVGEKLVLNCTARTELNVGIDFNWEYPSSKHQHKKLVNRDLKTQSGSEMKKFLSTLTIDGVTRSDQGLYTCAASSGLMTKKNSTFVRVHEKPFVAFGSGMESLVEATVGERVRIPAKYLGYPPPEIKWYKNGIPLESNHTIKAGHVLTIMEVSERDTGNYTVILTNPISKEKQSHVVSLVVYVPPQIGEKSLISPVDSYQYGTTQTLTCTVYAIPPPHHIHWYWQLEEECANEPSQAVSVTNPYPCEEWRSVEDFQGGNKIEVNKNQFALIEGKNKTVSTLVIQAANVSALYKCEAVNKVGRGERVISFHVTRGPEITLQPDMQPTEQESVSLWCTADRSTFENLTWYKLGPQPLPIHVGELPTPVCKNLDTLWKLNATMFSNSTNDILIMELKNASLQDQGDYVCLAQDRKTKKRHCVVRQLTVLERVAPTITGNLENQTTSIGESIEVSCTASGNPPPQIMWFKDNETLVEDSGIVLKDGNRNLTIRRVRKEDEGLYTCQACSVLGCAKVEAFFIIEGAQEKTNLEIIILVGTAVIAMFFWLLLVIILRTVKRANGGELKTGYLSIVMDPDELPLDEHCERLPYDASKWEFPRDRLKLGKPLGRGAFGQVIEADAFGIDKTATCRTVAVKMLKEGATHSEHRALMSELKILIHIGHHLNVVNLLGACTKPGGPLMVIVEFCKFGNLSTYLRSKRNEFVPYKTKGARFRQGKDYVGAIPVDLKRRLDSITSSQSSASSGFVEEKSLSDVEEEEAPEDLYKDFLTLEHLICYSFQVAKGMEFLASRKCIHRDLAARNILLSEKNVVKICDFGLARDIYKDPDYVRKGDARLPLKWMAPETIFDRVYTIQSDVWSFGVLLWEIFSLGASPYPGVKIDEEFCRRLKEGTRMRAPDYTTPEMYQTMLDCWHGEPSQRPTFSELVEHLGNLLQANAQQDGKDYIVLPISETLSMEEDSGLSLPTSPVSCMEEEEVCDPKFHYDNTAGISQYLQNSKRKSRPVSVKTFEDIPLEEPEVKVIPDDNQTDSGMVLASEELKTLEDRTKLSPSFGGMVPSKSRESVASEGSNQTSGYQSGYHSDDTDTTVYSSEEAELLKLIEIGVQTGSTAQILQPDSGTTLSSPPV

Usually inhibition stands for the change of the read-out against control, counted positive when it falls. As to `Cc1cc(Nc2cc(C)[nH]n2)nc(-c2ccc(N3CC4CC(C3)N4C(C)c3ccc(-n4cccn4)nc3)nc2)n1` (single isomer, unassigned) [Compound 125-2], the inhibition at 0.3 µM on VEGFR2 turned out to be 63%. The inhibition at 0.01 µM on RET-V804M (setting [1]) was 82%.

As to `Cc1cc(Nc2cc(C)[nH]n2)nc(-c2ccc(N3CC4CC(C3)N4Cc3ccc(-n4cc(F)cn4)nc3)nc2)c1` [Compound 6, 6′-(6-((6-(4-fluoro-1H-pyrazol-1-yl)pyridin-3-yl)methyl)-3,6-diazabicyclo[3.1.1]heptan-3-yl)-4-methyl-N-(5-methyl-1H-pyrazol-3-yl)-[2,3′-dipyridyl]-6-amine], on VEGFR2 (100 nM), the inhibition at 0.1 µM is -11%. Further, the inhibition at 0.01 µM at RET-V804M (setting [1]) was found to be 83%.

Turning to `COc1ccc(-c2ccc(CN3C4CC3CN(c3ccc(-c5nc(C)cc(Nc6cc(C)[nH]n6)n5)cn3)C4)cn2)cn1` [Compound 7, 2-(6-(6-((6′-methoxy-[2,3′-dipyridyl]-5-yl)methyl)-3,6-diazabicyclo[3.1.1]heptan-3-yl)pyridin-3-yl)-6-methyl-N-(5-methyl-1H-pyrazol-3-yl)pyrimidin-4-amine], at VEGFR2 (100 nM), the inhibition at 0.1 µM stood at 16%. Moreover, the inhibition at 0.01 µM at RET-V804M (setting [1]) turned out to be 46%.

In the case of `Cc1cc(Nc2cc(C)[nH]n2)nc(-c2ccc(N3CC4CC(C3)N4Cc3ccc(-c4cc(F)cnc4C)nc3)nc2)n1` [Compound 8, 2-(6-(6-((5′-fluoro-2′-methyl-[2,3′-dipyridyl]-5-yl)methyl)-3,6-diazabicyclo[3.1.1]heptan-3-yl)pyridin-3-yl)-6-methyl-N-(5-methyl-1H-pyrazol-3-yl)pyrimidin-4-amine], the inhibition at 0.3 µM on VEGFR2 came out at 5%. Also, the inhibition at 0.01 µM at RET-V804M (setting [1]) came out at 46%.

For orientation: IC50 means the concentration that inhibits the measured activity by half. Consider `Cc1cc(Nc2cc(C)[nH]n2)nc(-c2ccc(N3CC4CC(C3)N4Cc3ccc(-n4nccc4C)nc3)nc2)n1` [Compound 9, 6-methyl-2-(6-(6-((6-(5-methyl-1H-pyrazol-1-yl)pyridin-3-yl)methyl)-3,6-diazabicyclo[3.1.1]heptan-3-yl)pyridin-3-yl)-N-(5-methyl-1H-pyrazol-3-yl)pyrimidin-4-amine], for which the inhibition at 0.3 µM at VEGFR2 is 69%. In addition, the IC50 at RET-V804M was 5.43 ± 0.91 nM.

In the case of `Cc1cc(Nc2cc(C3CC3)[nH]n2)nc(-c2ccc(N3CC4CC(C3)N4Cc3ccc(-n4cc(F)cn4)nc3)nc2)n1` [Compound 10, N-(5-cyclopropyl-1H-pyrazol-3-yl)-2-(6-(6-((6-(4-fluoro-1H-pyrazol-1-yl)pyridin-3-yl)methyl)-3,6-diazabicyclo[3.1.1]heptan-3-yl)pyridin-3-yl)-6-methylpyrimidin-4-amine], the inhibition at 0.3 µM at VEGFR2 is 69%. The IC50 at RET-V804M stood at 3.97 ± 0.3 nM.

Consider `Cc1cc(Nc2cc(C)[nH]n2)nc(-c2ccc(N3CC4CC(C3)N4Cc3ccc(-n4nc(C)cc4C)nc3)nc2)n1` [Compound 11, 2-(6-(6-((6-(3,5-dimethyl-1H-pyrazol-1-yl)pyridin-3-yl)methyl)-3,6-diazabicyclo[3.1.1]heptan-3-yl)pyridin-3-yl)-6-methyl-N-(5-methyl-1H-pyrazol-3-yl)pyrimidin-4-amine], for which the IC50 at VEGFR2 (read-out: IC50 for inhibiting VEGFR2) stood at 158 ± 25.1 nM; at RET-V804M, 7.22 ± 0.58 nM.

Consider `Cc1cc(Nc2cc(C)[nH]n2)nc(-c2ccc(N3CC4CC(C3)N4Cc3ccc(-n4nccc4C(C)C)nc3)nc2)n1` [Compound 12, 2-(6-(6-((6-(5-isopropyl-1H-pyrazol-1-yl)pyridin-3-yl)methyl)-3,6-diazabicyclo[3.1.1]heptan-3-yl)pyridin-3-yl)-6-methyl-N-(5-methyl-1H-pyrazol-3-yl)pyrimidin-4-amine], for which the inhibition at 0.3 µM at VEGFR2 amounted to 62%. For the same compound, the IC50 on RET-V804M turned out to be 6.94 ± 0.78 nM.

Regarding `Cc1cc(Nc2cc(C)[nH]n2)nc(-c2ccc(N3CC4CC(C3)N4Cc3cnc(C)s3)nc2)n1` [Compound 15, 6-methyl-N-(5-methyl-1H-pyrazol-3-yl)-2-(6-(6-((2-methylthiazol-5-yl)methyl)-3,6-diazabicyclo[3.1.1]heptan-3-yl)pyridin-3-yl)pyrimidin-4-amine], the inhibition at 0.1 µM on VEGFR2 (100 nM) came out at 29%; at RET-V804M (100 nM (Table 2), read-out: Inhibition rate on RET-V804M), 91%.

Regarding `COc1ccc(CN2CCN(c3ccc(-c4nc(C)cc(Nc5cc(C)[nH]n5)n4)cn3)CC2)cc1` [Compound 23, 2-(6-(4-(4-methoxybenzyl)piperazin-1-yl)pyridin-3-yl)-6-methyl-N-(5-methyl-1H-pyrazol-3-yl)pyrimidin-4-amine], the inhibition at 0.1 µM on VEGFR2 was -10%. The inhibition at 0.01 µM at RET-V804M (read-out: Inhibition rate on RET-V804M) was determined as 47%.

As for `Cc1cc(Nc2cc(C)[nH]n2)nc(-c2ccc(N3CC4CC(C3)N4Cc3ccc(-n4cc5c(n4)CCC5)nc3)nc2)n1` [Compound 25], the inhibition at 0.3 µM at VEGFR2 worked out at 53%. The IC50 on RET-V804M was 6.29 ± 0.9 nM.

As to `Cc1cc(Nc2cc(C)[nH]n2)nc(-c2ccc(N3CC4CC(C3)N4C(=O)c3ccc(-n4cc(F)cn4)nc3)nc2)n1` [Compound 26, (6-(4-fluoro-1H-pyrazol-1-yl)pyridin-3-yl)(3-(5-(4-methyl-6-((5-methyl-1H-pyrazol-3-yl)-amino)pyrimidin-2-yl)pyridin-2-yl)-3,6-diazabicyclo[3.1.1]heptan-6-yl)methanone], at VEGFR2, the inhibition at 0.3 µM is 64%. At RET-V804M (setting [1]), the inhibition at 0.01 µM was found to be 83%.

Turning to `Cc1cc(Nc2cc(C)[nH]n2)nc(-c2ccc(N3CC4CC(C3)N4Cc3ccc(-n4nccc4OC4CCC4)nc3)nc2)n1` [Compound 27, 2-(6-(6-((6-(5-cyclobutoxy-1H-pyrazol-1-yl)pyridin-3-yl)methyl)-3,6-diazabicyclo[3.1.1]heptan-3-yl)pyridin-3-yl)-6-methyl-N-(5-methyl-1H-pyrazol-3-yl)pyrimidin-4-amine], on VEGFR2, the inhibition at 0.03 µM turned out to be 23%. Further, at RET-V804M (setting [1]), the inhibition at 0.01 µM came to 87%.

`Cc1cc(Nc2cc(C)[nH]n2)nc(-c2ccc(N3CC4CC(C3)N4Cc3ccc(-n4cc(Cl)c(C)n4)nc3)nc2)n1` [Compound 28, 2-(6-(6-((6-(4-chloro-3-methyl-1H-pyrazol-1-yl)pyridin-3-yl)methyl)-3,6-diazabicyclo[3.1.1]heptan-3-yl)pyridin-3-yl)-6-methyl-N-(5-methyl-1H-pyrazol-3-yl)pyrimidin-4-amine]: the inhibition at 0.3 µM on VEGFR2 came to 23%. Further, the IC50 at RET-V804M was 10.4 ± 1.38 nM.

For the compound `Cc1cc(Nc2cc(C)[nH]n2)nc(-c2ccc(N3CCC(Oc4cncc(F)c4)CC3)nc2)n1` [Compound 29, 2-(6-(4-((5-fluoropyridin-3-yl)oxy)piperidin-1-yl)pyridin-3-yl)-6-methyl-N-(5-methyl-1H-pyrazol-3-yl)pyrimidin-4-amine], the inhibition at 0.3 µM on VEGFR2 was 47%. On RET-V804M (setting [1]), the inhibition at 0.01 µM was determined as 52%.

With `Cc1cc(Nc2cc(C)[nH]n2)nc(-c2ccc(N3CC4CC(C3)N4Cc3ccc(-n4nccc4OC4CC4)nc3)nc2)n1` [Compound 30, 2-(6-(6-((6-(5-cyclopropoxy-1H-pyrazol-1-yl)pyridin-3-yl)methyl)-3,6-diazabicyclo[3.1.1]heptan-3-yl)pyridin-3-yl)-6-methyl-N-(5-methyl-1H-pyrazol-3-yl)pyrimidin-4-amine], the inhibition at 0.03 µM at VEGFR2 stood at 51%. In addition, at RET-V804M (setting [1]), the inhibition at 0.01 µM was found to be 88%.

Regarding `Cc1cc(Nc2cc(C)[nH]n2)nc(-c2ccc(N3CC4CC(C3)N4Cc3ccc(-n4ccc(CF)n4)nc3)nc2)n1` [Compound 31, 2-(6-(6-((6-(3-(fluoromethyl)-1H-pyrazol-1-yl)pyridin-3-yl)methyl)-3,6-diazabicyclo[3.1.1]heptan-3-yl)pyridin-3-yl)-6-methyl-N-(5-methyl-1H-pyrazol-3-yl)pyrimidin-4-amine], the inhibition at 0.03 µM on VEGFR2 worked out at 17%. The inhibition at 0.01 µM on RET-V804M (setting [1]) stood at 81%.

For `CCOc1ccc(CN2C3CC2CN(c2ccc(-c4nc(C)cc(Nc5cc(C)[nH]n5)n4)cn2)C3)cc1` [Compound 41, 2-(6-(6-(4-ethoxybenzyl)-3,6-diazabicyclo[3.1.1]heptan-3-yl)pyridin-3-yl)-6-methyl-N-(5-methyl-1H-pyrazol-3-yl)pyrimidin-4-amine], at VEGFR2 (100 nM), the inhibition at 0.1 µM came to 22%. In addition, the inhibition at 0.01 µM on RET-V804M (setting [1]) was determined as 64%.

`CCc1ccnn1-c1ccc(CN2C3CC2CN(c2ccc(-c4nc(C)cc(Nc5cc(C)[nH]n5)n4)cn2)C3)cn1` [Compound 46, 2-(6-(6-((6-(5-ethyl-1H-pyrazol-1-yl)pyridin-3-yl)methyl)-3,6-diazabicyclo[3.1.1]heptan-3-yl)pyridin-3-yl)-6-methyl-N-(5-methyl-1H-pyrazol-3-yl)pyrimidin-4-amine]: the inhibition at 0.3 µM on VEGFR2 was determined as 79%. For the same compound, the inhibition at 0.01 µM at RET-V804M (setting [1]) was determined as 92%.
